From ChEMBL document CHEMBL1155085, “Propindilactones E-J, Schiartane Nortriterpenoids from Schisandra propinqua var. propinqua” (J Nat Prod, 2008)

Tests used:
Assay type in all cases: functional, cell-based
HT-29 = experiment: Cytotoxicity against human HT29 cells after 72 hrs by sulforhodamine B assay; settings: HT-29, 72 h
K562 = experiment: Cytotoxicity against human K562 cells after 72 hrs by sulforhodamine B assay; settings: K562, 72 h
A549 = experiment: Cytotoxicity against human A549 cells after 72 hrs by sulforhodamine B assay; settings: A549, 72 h

Measured: IC50

C[C@@H]([C@@H](O)[C@@H]1C[C@@H](C)C(=O)O1)[C@H]1[C@@H](O)[C@H](O)[C@]2(O)[C@@H]3C[C@H]4C(C)(C)O[C@@H]5CC(=O)O[C@@]54CC[C@@]3(O)CC[C@]12C [PRPINDILACETONES H]
> 100 µM: all assays above

C[C@@H]([C@@H](O)[C@@H]1C[C@@H](C)C(=O)O1)[C@H]1C[C@H](O)[C@]2(O)[C@@H]3C[C@H]4C(C)(C)O[C@@H]5CC(=O)O[C@@]54CC[C@@]3(O)CC[C@]12C [PRPINDILACETONES I]
> 100 µM: all assays above

CC(=O)O[C@@H]1C[C@]2(O)CC[C@]34OC(=O)C[C@H]3OC(C)(C)[C@@H]4C[C@H]2[C@]23O[C@H]2C[C@H]([C@@H](C)[C@H]2CC=C(C)C(=O)O2)[C@@]13C [PRPINDILACETONES J]
> 100 µM: all assays above
